Test results: paper PMC8654833 (Scientific Reports, 2021)
Values joined by “and” are separate entries in the source; they are usually repeats but may differ in a detail not shown here. Equal entries are not always repeated.

Key:
[1] = Plasma and brain distribution after single IP injection; conditions: CD-1, mouse, 10 mg/kg
5-HT1A = biological target: T1, 5-HT1A (Homo sapiens, UniProt P08908); assay: Radioligand binding competition dose-response (Euroscreen), 5-HT1A
T1 construct: Euroscreen FAST (contract assay)
T1 sequence (P08908 1-422): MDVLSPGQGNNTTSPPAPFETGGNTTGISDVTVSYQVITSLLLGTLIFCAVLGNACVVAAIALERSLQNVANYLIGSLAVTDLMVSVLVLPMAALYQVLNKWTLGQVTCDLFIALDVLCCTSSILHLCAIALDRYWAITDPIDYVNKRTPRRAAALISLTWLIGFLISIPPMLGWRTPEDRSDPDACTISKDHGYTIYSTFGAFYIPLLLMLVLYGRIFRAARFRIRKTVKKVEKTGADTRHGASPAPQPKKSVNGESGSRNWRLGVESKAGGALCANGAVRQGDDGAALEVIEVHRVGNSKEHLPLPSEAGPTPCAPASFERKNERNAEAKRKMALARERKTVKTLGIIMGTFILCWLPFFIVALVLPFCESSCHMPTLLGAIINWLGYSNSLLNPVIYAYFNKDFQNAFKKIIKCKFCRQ
Method: (§1) This study included binding assays (87 GPCR targets), measured as % of binding inhibition of a reference radioligand, as well as uptake and enzyme assays (19 targets), the latter measured as % inhibition of control enzyme activity. […] It was performed by radioligand binding competition by Euroscreen (Euroscreen FAST, Belgium). The following nanomolar concentrations were tested in duplicate: 0.001, 0.01, 0.1, 1, 10, 100, 1000, 10,000. Dose–response curves were fitted with the least squares method. IC50 results are shown as pIC50, corresponding to the negative log10 of IC50 in molar.

DAT = biological target: T2, DAT (Homo sapiens, UniProt Q01959); assay: Single-concentration radioligand binding screen (Eurofins Cerep), dopamine transporter; conditions: single concentration 10 µM screen, [3H]BTCP
T2 construct: Euroscreen FAST (contract assay)
T2 sequence (Q01959 whole entry, species assumed): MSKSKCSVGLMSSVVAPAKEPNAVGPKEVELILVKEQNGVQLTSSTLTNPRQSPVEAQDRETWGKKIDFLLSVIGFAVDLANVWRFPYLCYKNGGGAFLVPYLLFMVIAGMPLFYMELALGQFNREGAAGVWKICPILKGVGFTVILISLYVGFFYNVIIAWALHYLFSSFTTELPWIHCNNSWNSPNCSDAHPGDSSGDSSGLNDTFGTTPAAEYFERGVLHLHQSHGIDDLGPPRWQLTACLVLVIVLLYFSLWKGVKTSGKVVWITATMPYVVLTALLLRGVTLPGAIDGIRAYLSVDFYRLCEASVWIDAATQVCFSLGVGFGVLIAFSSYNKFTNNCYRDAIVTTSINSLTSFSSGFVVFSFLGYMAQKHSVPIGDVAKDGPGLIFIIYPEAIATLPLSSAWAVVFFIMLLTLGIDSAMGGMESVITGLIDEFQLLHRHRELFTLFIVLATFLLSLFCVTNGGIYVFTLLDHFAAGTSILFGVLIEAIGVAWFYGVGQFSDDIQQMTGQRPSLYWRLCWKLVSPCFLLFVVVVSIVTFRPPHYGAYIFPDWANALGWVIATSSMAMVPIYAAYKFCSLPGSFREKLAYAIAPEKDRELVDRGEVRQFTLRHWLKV
Method: as §1

5-HT7 = biological target: T3, 5-HT7 (Homo sapiens, UniProt P34969); assay: Single-concentration radioligand binding screen (Eurofins Cerep), 5-HT7; conditions: single concentration 10 µM screen, [3H]LSD
T3 construct: Euroscreen FAST (contract assay)
T3 sequence (P34969 whole entry, species assumed): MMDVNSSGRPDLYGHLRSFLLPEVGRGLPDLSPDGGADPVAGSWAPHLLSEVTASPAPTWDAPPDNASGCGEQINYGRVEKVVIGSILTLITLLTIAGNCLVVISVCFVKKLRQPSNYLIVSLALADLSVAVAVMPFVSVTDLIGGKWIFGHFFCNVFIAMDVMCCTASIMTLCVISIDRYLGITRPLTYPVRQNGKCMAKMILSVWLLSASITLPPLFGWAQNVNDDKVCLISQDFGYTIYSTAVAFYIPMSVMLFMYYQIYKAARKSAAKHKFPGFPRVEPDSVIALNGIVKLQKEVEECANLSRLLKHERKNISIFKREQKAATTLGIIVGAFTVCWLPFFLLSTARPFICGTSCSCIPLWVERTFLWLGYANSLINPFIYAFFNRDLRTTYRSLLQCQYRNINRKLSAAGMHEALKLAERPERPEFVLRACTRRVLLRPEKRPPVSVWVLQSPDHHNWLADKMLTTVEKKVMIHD
Method: as §1

Ca^2+ channel, vs [2] = assay: Single-concentration radioligand binding screen (Eurofins Cerep), Ca2+ channel verapamil site; conditions: single concentration 10 µM screen, [3H]D888
Method: as §1

Ca^2+ channel, vs [3] = assay: Radioligand binding competition dose-response (Euroscreen), Ca2+ channel verapamil site
Method: as §1

5-HT2B = 5-HT2B (Homo sapiens, UniProt P41595); assay: Single-concentration radioligand binding screen (Eurofins Cerep), 5-HT2B; design: Euroscreen FAST (contract assay); conditions: single concentration 10 µM screen, [3H]mesulergine
Sequence of 5-HT2B (P41595 whole entry, species assumed): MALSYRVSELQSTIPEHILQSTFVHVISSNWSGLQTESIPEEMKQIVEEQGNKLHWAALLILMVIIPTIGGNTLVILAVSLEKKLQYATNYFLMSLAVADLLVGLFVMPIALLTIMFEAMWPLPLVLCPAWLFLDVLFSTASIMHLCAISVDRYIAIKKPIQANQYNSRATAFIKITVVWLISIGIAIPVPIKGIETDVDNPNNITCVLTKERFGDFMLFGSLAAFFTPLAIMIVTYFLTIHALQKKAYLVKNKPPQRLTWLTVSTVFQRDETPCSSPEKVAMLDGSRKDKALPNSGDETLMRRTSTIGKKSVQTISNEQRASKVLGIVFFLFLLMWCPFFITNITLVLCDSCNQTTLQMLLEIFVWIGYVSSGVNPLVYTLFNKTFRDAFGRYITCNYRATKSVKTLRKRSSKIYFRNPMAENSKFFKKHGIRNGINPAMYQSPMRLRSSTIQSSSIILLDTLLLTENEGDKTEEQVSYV

5-HT5A = biological target: T4, 5-HT5A (Homo sapiens, UniProt P47898); assay: Single-concentration radioligand binding screen (Eurofins Cerep), 5-HT5A; conditions: single concentration 10 µM screen, [3H]LSD
T4 construct: Euroscreen FAST (contract assay)
T4 sequence (P47898 whole entry, species assumed): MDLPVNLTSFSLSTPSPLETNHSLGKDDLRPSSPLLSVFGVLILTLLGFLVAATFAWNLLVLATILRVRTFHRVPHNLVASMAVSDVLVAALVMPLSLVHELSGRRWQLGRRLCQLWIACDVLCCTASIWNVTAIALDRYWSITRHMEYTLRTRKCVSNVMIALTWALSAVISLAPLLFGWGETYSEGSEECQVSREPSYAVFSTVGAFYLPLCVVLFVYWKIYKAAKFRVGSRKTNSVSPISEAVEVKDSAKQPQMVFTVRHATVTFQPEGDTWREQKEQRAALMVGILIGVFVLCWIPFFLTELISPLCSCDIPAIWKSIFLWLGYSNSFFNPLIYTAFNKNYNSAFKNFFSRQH
Method: as §1

5-HT2B receptor = conditions: cited from earlier work
Ca^2+ channel, ds = assay: Single-concentration radioligand binding screen (Eurofins Cerep), Ca2+ channel diltiazem site; conditions: single concentration 10 µM screen, [3H]diltiazem
Method: as §1

5-HT2C = biological target: T5, 5-HT2C (Homo sapiens, UniProt P28335); assay: Radioligand binding competition dose-response (Euroscreen), 5-HT2C
T5 construct: Euroscreen FAST (contract assay)
T5 sequence (P28335 33-458): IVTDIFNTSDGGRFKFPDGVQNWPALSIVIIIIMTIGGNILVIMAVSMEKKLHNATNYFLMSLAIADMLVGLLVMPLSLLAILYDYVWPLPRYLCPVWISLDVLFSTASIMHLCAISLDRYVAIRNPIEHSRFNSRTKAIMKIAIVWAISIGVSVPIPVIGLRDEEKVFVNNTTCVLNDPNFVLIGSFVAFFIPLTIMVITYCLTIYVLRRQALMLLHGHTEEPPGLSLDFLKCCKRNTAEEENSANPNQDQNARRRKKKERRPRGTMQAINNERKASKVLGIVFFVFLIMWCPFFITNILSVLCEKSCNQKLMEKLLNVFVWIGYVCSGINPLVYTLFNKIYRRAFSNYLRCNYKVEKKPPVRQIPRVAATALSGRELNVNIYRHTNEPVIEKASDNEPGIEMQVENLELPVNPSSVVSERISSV
Method: as §1

Sod1^G86R mice = assay: Body weight, grip strength, onset and survival follow-up in ALS mouse model; assay type: in vivo; conditions: for median survival: p > 0.05 vs vehicle (109 days)
Excerpt: Osmotic mini-pumps were collected at endstage, and mini-pump emptying was systematically checked. After mini-pump implantation, mice were longitudinally followed for body weight, grip strength and survival.
To this aim, we measured mitral valve thickness using histology (Fig. 3).
Sod1^G86R mice on FVB/N background were produced by rapid lineage extension at Charles River facility, France. The resulting animals were F1 hybrid FVB/NRj and FVB/NCrl. During experimentation, mice were housed at the animal facility of the Faculty of Medicine of the University of Strasbourg, in a conventional sanitary status. […] We included both females and males in equal proportions. […] Mice were sacrificed at end-stage by lethal intraperitoneal injection of pentobarbital (Doléthal 120 mg/kg, Vetoquinol, France). Spinal cord, brain and blood samples were then collected. All animal care and procedures were in accordance with institutional guidelines and European regulations.
Mice were visually monitored daily for any potential ethical issue. Body weight and muscular strength were monitored twice a week. Muscular strength was assessed using a gripmeter test (ALG01, Bioseb, France). Results are the mean of three successive measures and were normalized by body weight. Onset of the pathology was calculated as the time between birth and peak of body weight. Duration of the disease is the time between onset and death of the mouse. End-stage was defined as the inability of the animal to turn around after 3 s placed on the back, and subsequent euthanasia followed. Muscular strength and weight loss are presented as percent loss from disease onset. […] Survival is presented as Kaplan–Meier curves.

CC(N)Cc1c[nH]c2ccc(OCc3cccs3)cc12 (stereo not shown) [BW, 1-[5-(thiophen-2-ylmethoxy)-1H-indol-3-yl]propan-2-amine]
Tmax ([1]; in vivo): ~30 min
concentration at 4 h ([1]; in vivo): 860 ng/g
concentration at 8 h ([1]; in vivo): 14.4 ng/mL and 417 ng/g
half-life ([1]; plasma): 66 min
IC50 (5-HT1A): 589 nM
inhibition at 10 µM (5-HT1A; dose-response study, maximal concentration 10 µM, [3H]8-OH-DPAT): 95%
%Binding inhibition at 10 µM (5-HT1A; dose-response study, maximal concentration 10 µM, [3H]8-OH-DPAT, 10 µM): 95.26%
inhibition at 10 µM (DAT): 81.9%
inhibition at 10 µM (5-HT7): 89.5%
%Binding inhibition at 10 µM (Ca^2+ channel, vs [2]): 75.5%
pIC50 (Ca^2+ channel, vs [3]; [3H]D888 competition): 5.21
%Binding inhibition at 10 µM (Ca^2+ channel, vs [3]; dose-response study, maximal concentration 10 µM, [3H]D888): 51.29%
pIC50 difference as compared to 5-HT2BR (Ca^2+ channel, vs [3]; verapamil site of calcium channel vs 5-HT2BR): 2.3 log10
inhibition at 10 µM (5-HT2B): 99%
inhibition at 10 µM (5-HT5A): 54.6%
agonist activity in rat stomach fundus (5-HT2B receptor): potent agonist
%Binding inhibition at 10 µM (Ca^2+ channel, ds): 66.3%
IC50 (5-HT2C): 1320 nM
inhibition at 10 µM (5-HT2C; dose-response study, maximal concentration 10 µM, [3H]mesulergine): 91.1%
median survival (Sod1^G86R mice; 1 mg/kg/d): 107 days
median survival (Sod1^G86R mice; 3 mg/kg/d): 109 days
disease onset (Sod1^G86R mice; 1 or 3 mg/kg/d, compared to vehicle): unchanged
